According to US11524021B2, “Use of ginsenoside M1 for manufacturing medicament for treating oral cancer” (priority 2018, dated 2022):

Assays:
[1] = tested on: human oral cancer cells SAS; assay: Viability of human oral cancer SAS cells, Trypan blue exclusion; format: cell-based; details: 5˜20 μg/ml, 24 h
Experimental: Human oral cancer cell line SAS cells (FIG. 1A) or OECM-1 cells (FIG. 1B) were incubated for 24 h with ginsenoside M1 (5˜20 μg/ml), ginsenoside Rh2 (5˜20 μg/ml) or vehicle (0.1% DMSO). The live cell numbers were counted by Trypan blue exclusion method. The data were expressed as mean±SD; n=3. *, ** and *** indicate a significant difference at the level of p<0.05, p<0.01 and p<0.001, respectively, compared to vehicle-control cells. (One-way ANOVA with Dunnett's multiple comparisons test).
Plate 5×10^5 human oral cancer cells SAS per 6-cm dish in 2 ml of culture medium and were grown overnight at 37° C. in a 5% CO2 incubator. The cells were incubated for 24 h with ginsenoside M1 (5˜20 μg/ml), ginsenoside Rh2 (5˜20 μg/ml) or vehicle. Each group contains a final DMSO concentration of 0.1%. Thereafter, the cell numbers were counted by Trypan blue exclusion method. […] The data were expressed as mean±SD; n=3. *, ** and *** indicate a significant difference at the level of p<0.05, p<0.01 and p<0.001, respectively, compared to vehicle-control cells. (One-way ANOVA with Dunnett's multiple comparisons test).

[2] = Body weight of SAS xenograft mice; format: in vivo, BALB/c nude (nu/nu) mice; details: 5 successive days
Experimental: FIGS. 6A-6C show oral administration of ginsenoside M1 reduced human oral cancer growth in mice. Human oral cancer cell line SAS cells Xenografts mice with tumor size around 40˜60 mm^3 were given a daily oral administration of either ginsenoside M1 (30-90 mg/kg) or vehicle for 5 successive days. (FIG. 6A) The tumor volume was determined by measurement of the length (L) and width (W) of the tumor and calculated as tumor volume (mm3)=(L×W^2)/2. (FIG. 6B) The tumor weight was measured after the mice were scarified. (FIG. 6C) The body weight of mice was recorded. The data were expressed as mean±SD; n=6. ** and *** indicate a significant difference at the level of p<0.01 and p<0.001, respectively, compared to vehicle-control mice. […]
FIGS. 7A-7C show subcutaneous (SC) injection of ginsenoside M1 reduced human oral cancer growth in mice. […] (FIG. 7A) The tumor volume was determined by measurement of the length (L) and width (W) of the tumor and calculated as tumor volume (mm3)=(L×W^2)/2. (FIG. 7B) The tumor weight was measured after the mice were scarified. (FIG. 7C) The body weight of mice was recorded. The data were expressed as mean±SD; n=6. ** indicates a significant difference at the level of p<0.01, compared to vehicle-control mice. […]
To evaluate the anti-cancer activity of ginsenoside M1 in vivo, human oral cancer xenografts were used. […] The TV on day n (TVn) was calculated as TV (mm3)=(L×W^2)/2. […]

## CC(C)=CCC[C@](C)(O[C@@H]1OC(CO)[C@@H](O)[C@@H](O)C1O)[C@H]1CC[C@]2(C)C1[C@H](O)CC1[C@@]3(C)CC[C@H](O)C(C)(C)C3CC[C@]12C (stereo partly drawn) [ginsenoside M1, 20-O-β-D-glucopyranosyl-20(S)-protopanaxadiol]
[1]
  cell numbers of human oral cancer SAS cells: dose-dependently inhibited
[2]; SC injection 20 mg/kg daily
  body weight of mice: did not significantly affect
[2]; oral 30-90 mg/kg daily
  body weight of mice: did not significantly affect
